The nature of series [1]: Pharmacokinetics following a single rectal administration to NZW rabbits (Example 11). The format is in vivo, New Zealand White KBL Rabbit. Conditions: Treatment B 7.5, NZW rabbits; for concentration at 2 h / concentration at 4 h / concentration at 8 h / concentration at 24 h: male, New Zealand White KBL, rabbit, plasma, other: rectal, 7.5 mg, Niclosamide Plasma Concentrations. The text has this: Following dosing, blood samples and rectal mucosa was obtained at indicated time points.

In the next series the test system is LPMC T cells. Nature of the series: LPMC T cell death, 7-AAD flow cytometry (Example 3). The format is cell-based, human. Here is the method:
Objective. […] Model. The human LPMC model as described in Example 2 was used. Cell isolation and culture. Cell isolation and culture procedures were as detailed in Example 2. Treatment with Niclosamide. […] […] […] After treatment cells were exposed to 1 μM 7AAD then incubated a further 60 minutes at 37° C. Live cells and dead cells were enumerated by flow cytometer using a FACS Verse cytometer set to excite and measure emitted fluorescence of 7-AAD at appropriate wavelengths. Detecting viable and dead cells. 7-AAD is excluded from live cells but free to enter dead cells where it undergoes a spectral shift after interacting with cellular DNA. […] Use of this reagent allows viable cells and dead cells to be simultaneously enumerated. In order to specifically distinguish T cells from other cells in LPMCs, anti-CD3 monoclonal antibody labeled with FITC (excitation at 494 nm with emission detected at 521 nm) will be used. This antibody specifically binds human CD3 antigen that is selectively expressed on T cells. Cell viability and death was determined specifically in T cells by measuring 7-AAD fluorescence in cells labeled by anti-CD3 FITC. Calculation of T cell death. The fluorescence intensity of 7-AAD detected at 647 nm was measured specifically T the cell population that was first defined as described in Example 2 by FITC-anti-CD3 antibody fluorescence. […] For statistical comparisons, 95% confidence intervals were computed and graphed with the mean values.
(Flow cytometry measures light scatter and fluorescence of single cells or particles in a stream.)

The next series has as its system TNBS-induced colitis. Description: Relapsing TNBS-induced colitis in mice, rectal niclosamide (Example 4). The note with it: relative to vehicle control. The format is in vivo, C57BL/6J female mice. An excerpt: Objective. […] Model. The TNBS-induced colitis is a commonly used experimental model for Inflammatory Bowel Disease (IBD). TNBS (trinitrobenzenesulfonic acid) is a chemical administered rectally in the form of an enema to mice or rats in combination with ethanol, which disrupts the mucous barrier, and induces colitis by […] proteins within the gut, causing them to become preferential targets for immune cells. The severity of TNBS-induced colitis depends largely on the dosage applied and the strain of animal used. In chronic, relapsing form of the model, animals are sensitized by escalating, intracolonic doses of TNBS. Disease is monitored in-life by weight loss. Histology of colon specimens is used to determine disease severity at study termination (Gastroenterology. 2003 December; 125(6). 1750-61; Inflamm Bowel Dis. 2006 October; 12(10):995-9.) Mouse strain and housing. C57BL/6J female mice (9-weeks old) are purchased by Jackson and are housed at a temperature ranging from 68 to 74° F. with a diurnal 12 hour light cycle in a specific pathogen-free facility in ventilated cages. Food and water is provided ad libitum. Animals are acclimated to local microbiota for 7 days before the beginning of the experiment. Cell isolation and culture procedures are as noted in Example 2. Conditioning to induce colitis. To perform the studies of relapsing hapten-induced colitis 4 escalating doses of TNBS in 50% ethanol are administered at weekly intervals to lightly anesthetized mice through a 3.5Fr catheter inserted into the rectum. The catheter tip is inserted 4 cm proximal to the anal verge, and 150 μL of fluid is slowly instilled into the colon, after which the mouse is held in a vertical position for 30 seconds per rectum at weekly intervals. […] For the clinical assessment of colitis, animal weight, diarrhea (0=absent; 1=present), rectal prolapse (0=absent; l=present) and presence of blood in the stool (0=absent; l=present) is recorded daily. […] For statistical comparisons, two-way Anova test with Bonferroni correction is calculated with […] software.

From patent publication US10849867B2, “Methods and compositions for treating conditions associated with an abnormal inflammatory response” (First Wave Bio, Inc., priority 2015, dated 2020) come the findings set out here.

Take `O=C(Nc1ccc([N+](=O)[O-])cc1Cl)c1cc(Cl)ccc1O` [Niclosamide, 5-chloro-N-(2-chloro-4-nitrophenyl)-2-hydroxybenzamide]: the “Niclosamide Plasma Concentrations, Mean” value in series [1] (1 h) came to 3.9275 ng/mL. Moreover, the concentration at 2 h stood at 19.7 ng/mL in series [1] (Mean, 2 h); 5.19 ng/mL in series [1] (Subject 666, 2 h); 3.26 ng/mL in series [1] (Subject 667, 2 h); 50.7 ng/mL in series [1] (Subject 668, 2 h). Besides, the concentration at 4 h in series [1] (Mean, 4 h) was 12 ng/mL; in series [1] (Subject 668, 4 h) it was 2.21 ng/mL. Further, the concentration at 8 h in series [1] (Mean, 8 h) came to 4.68 ng/mL; in series [1] (Subject 666, 8 h), 4.73 ng/mL; in series [1] (Subject 667, 8 h) it was 4.63 ng/mL. For the same compound, the concentration at 24 h in series [1] (Mean, 24 h) worked out at 1.07 ng/mL; in series [1] (Subject 667, 24 h) it was 1.07 ng/mL. For the same compound, in the series on LPMC T cells (1-500 μM, 24 hours, 7-AAD in CD3+ cells), the “LPMC T cell death” value was “dose-related increase”. Besides, the “concentrations that fail to induce T cell death” value in the series with LPMC T cells (LPMC T cells) is “below 5 μM”. The “concentrations of niclosamide that significantly increase T cell death (p<0.05)” value with LPMC T cells (relative to negative controls with vehicle alone) was at least 5 µM. The colitis clinical scores result with TNBS-induced colitis (daily, 1-100 mg/kg) is listed as “dose-related decrease”. In the series on TNBS-induced colitis (daily, 1-100 mg/kg), the colitis histologic scores result is “dose-related decrease”. In addition, in the series with TNBS-induced colitis, the “doses that significantly reduce both clinical and histologic scores (p<0.05)” value was at least 3 mg/kg.
